From publication PMC10279719 (Nature Communications, 2023)

Tests used:
[1] = molecular target: T1, 14-3-3γ (Homo sapiens, UniProt P61981); assay: SPR, PEAK peptides binding to immobilised 14-3-3γ; conditions: peptide analyte over amine-coupled 14-3-3γ (CM5); Biacore S200, HBS-TP pH 7.4, 20 °C; steady-state 1:1 fit; mean ± S.E.M.; read-out: SPR KD, 14-3-3γ (gamma)
T1 construct: 14-3-3γ (UniProt P61981-1; residues 1–247); 8-His tag with TEV protease cleavage site (N); made in house; host or cells: E. coli C41 (DE3)
T1 sequence (P61981 1-247): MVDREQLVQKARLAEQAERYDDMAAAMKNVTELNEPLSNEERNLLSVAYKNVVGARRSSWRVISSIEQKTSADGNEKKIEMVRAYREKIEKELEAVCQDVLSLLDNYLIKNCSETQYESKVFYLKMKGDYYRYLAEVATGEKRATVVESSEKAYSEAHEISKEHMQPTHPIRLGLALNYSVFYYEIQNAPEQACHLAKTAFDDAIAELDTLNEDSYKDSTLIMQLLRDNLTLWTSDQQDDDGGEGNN
Description: (§1) Purified […]3 was diluted to 5 μg ml^-1 in 10 mM sodium acetate pH 4.0 and amine coupled at 25 °C to a Series S CM5 sensor chip, in HBS-N running buffer (20 mM HEPES pH 7.4, 150 mM NaCl) to a final immobilization level of 1100-1400 response units (RU), followed by surface deactivation using 1 M ethanolamine. A blank activation/deactivation was used for the reference surface. […] Samples were injected in a multi-cycle run (flow rate 30 μl min^-1, contact time of 60 s, dissociation 120 s) without regeneration. Sensorgrams were double referenced, and steady-state binding data fitted using a 1:1 binding model using Biacore S200 Evaluation Software (Cytiva, v. 1.1). […] Representative sensorgrams and fitted dissociation constant (KD) values, depicted as mean ± S.E.M.

[2] = molecular target: T2, 14-3-3σ (Homo sapiens); assay: SPR, PEAK tandem peptides binding to immobilised 14-3-3σ; conditions: peptide analyte over amine-coupled 14-3-3σ (CM5); Biacore S200, HBS-TP pH 7.4, 20 °C; steady-state 1:1 fit; mean ± S.E.M.; read-out: SPR KD, 14-3-3σ (sigma)
T2 construct: 14-3-3ς (UniProt P63104-1; residues 1–245); 8-His tag with TEV protease cleavage site (N); made in house; host or cells: E. coli C41 (DE3)
T2 sequence (P63104 whole entry, the tested form may be a part): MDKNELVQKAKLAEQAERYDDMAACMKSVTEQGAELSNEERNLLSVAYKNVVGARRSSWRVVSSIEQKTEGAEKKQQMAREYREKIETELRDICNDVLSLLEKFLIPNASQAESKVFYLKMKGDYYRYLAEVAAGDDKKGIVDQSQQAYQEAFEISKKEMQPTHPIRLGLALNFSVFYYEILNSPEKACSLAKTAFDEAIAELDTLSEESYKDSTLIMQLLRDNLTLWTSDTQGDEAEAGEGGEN
Description: as §1

[3] = molecular target: T3, 14-3-3η (Homo sapiens, UniProt Q04917); assay: SPR, PEAK tandem peptides binding to immobilised 14-3-3η; conditions: peptide analyte over amine-coupled 14-3-3η (CM5); Biacore S200, HBS-TP pH 7.4, 20 °C; steady-state 1:1 fit; mean ± S.E.M.; read-out: SPR KD, 14-3-3η (eta)
T3 construct: 14-3-3η (UniProt Q04917-1; residues 1–246); 8-His tag with TEV protease cleavage site (N); made in house; host or cells: E. coli C41 (DE3)
T3 sequence (Q04917 1-246): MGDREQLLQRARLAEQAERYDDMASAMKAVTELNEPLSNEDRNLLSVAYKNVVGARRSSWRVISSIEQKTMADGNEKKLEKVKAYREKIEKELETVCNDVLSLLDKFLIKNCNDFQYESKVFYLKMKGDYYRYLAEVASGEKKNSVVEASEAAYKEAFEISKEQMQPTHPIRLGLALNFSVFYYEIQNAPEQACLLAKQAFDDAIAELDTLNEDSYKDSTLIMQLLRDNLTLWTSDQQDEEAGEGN
Description: as §1

[4] = molecular target: T4, 14-3-3ε (Homo sapiens, UniProt P62258); assay: SPR, PEAK tandem peptides binding to immobilised 14-3-3ε; conditions: peptide analyte over amine-coupled 14-3-3ε (CM5); Biacore S200, HBS-TP pH 7.4, 20 °C; steady-state 1:1 fit; mean ± S.E.M.; read-out: SPR KD, 14-3-3ε (epsilon)
T4 construct: 14-3-3ε (UniProt P62258-1; residues 1–255); 8-His tag with TEV protease cleavage site (N); made in house; host or cells: E. coli C41 (DE3)
T4 sequence (P62258 1-255): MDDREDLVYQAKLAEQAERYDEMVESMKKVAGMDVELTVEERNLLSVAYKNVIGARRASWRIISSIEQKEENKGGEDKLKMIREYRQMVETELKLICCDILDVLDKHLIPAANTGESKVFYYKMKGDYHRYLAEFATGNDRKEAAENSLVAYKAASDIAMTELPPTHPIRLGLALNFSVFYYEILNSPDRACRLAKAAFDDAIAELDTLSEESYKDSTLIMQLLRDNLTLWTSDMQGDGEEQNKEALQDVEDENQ
Description: Purified […]3 was diluted to 5 μg ml^-1 in 10 mM sodium acetate pH 4.0 and amine coupled at 25 °C to a Series S CM5 sensor chip, in HBS-N running buffer (20 mM HEPES pH 7.4, 150 mM NaCl) to a final immobilization level of 1100-1400 response units (RU), followed by surface deactivation using 1 M ethanolamine. A blank activation/deactivation was used for the reference surface. […] PEAK PRM peptides: […] Samples were injected in a multi-cycle run (flow rate 30 μl min^-1, contact time of 60 s, dissociation 120 s) without regeneration. Sensorgrams were double referenced, and steady-state binding data fitted using a 1:1 binding model using Biacore S200 Evaluation Software (Cytiva, v. 1.1). […] Representative sensorgrams and fitted dissociation constant (KD) values, depicted as mean ± S.E.M.

[5] = molecular target: Grb2^FL; conditions: isothermal titration calorimetry, shown previously; read-out: ITC KD, Grb2^FL; cited from earlier work
[6] = test system: PEAK3 pY24 phosphorylation in MCF-10A cells; conditions: MCF-10A cells treated with inhibitor; cited from earlier work

Row | Structure (SMILES) | Kd [1] | Kd [2] | Kd [3] | Kd [4] | Kd [5] | phosphorylation of PEAK3 at the TYSNL (pY24) site [6]
1 | CC[C@H](C)[C@H](NC(=O)[C@H](CCSC)NC(=O)[C@H](CCCCN)NC(=O)[C@H](CCCCN)NC(=O)[C@@H]1CCCN1C(=O)[C@H](CC(C)C)NC(=O)[C@@H]1CCCN1C(=O)[C@@H]1CCCN1C(=O)[C@@H]1CCCN1C(C)=O)C(=O)N[C@H](C(=O)N[C@@H](CCCNC(=N)N)C(=O)N[C@@H](C)C(=O)N[C@@H](CC(N)=O)C(=O)N[C@H](C(=O)N[C@@H](CCC(=O)O)C(=O)N1CCC[C@H]1C(=O)N[C@H](C(=O)N[C@@H](CO)C(=O)N[C@@H](CCCCN)C(=O)N[C@@H](CC(=O)O)C(N)=O)[C@@H](C)CC)[C@@H](C)O)[C@@H](C)CC (single isomer, unassigned) [PEAK1^tandem] | > 100 µM | > 100 µM | > 100 µM | > 100 µM |  | 
2 | CC[C@H](C)[C@H](NC(=O)[C@H](CCCCN)NC(=O)[C@H](CCCCN)NC(=O)[C@H](CCC(N)=O)NC(=O)[C@@H]1CCCN1C(=O)[C@H](CC(C)C)NC(=O)[C@@H]1CCCN1C(=O)[C@@H]1CCCN1C(=O)[C@@H]1CCCN1C(C)=O)C(=O)N[C@H](C(=O)N[C@@H](CO)C(=O)N[C@@H](CCCNC(=N)N)C(=O)N[C@@H](C)C(=O)N[C@@H](C)C(=O)N[C@@H](CO)C(=O)N[C@@H](CO)C(=O)N1CCC[C@H]1C(=O)N[C@@H](CC(=O)O)C(=O)NCC(=O)N[C@@H](Cc1ccccc1)C(N)=O)C(C)C (single isomer, unassigned) [PEAK2^tandem] | > 100 µM | > 100 µM | > 100 µM | > 100 µM |  | 
3 | CC(=O)N[C@H](C(=O)N[C@@H](Cc1ccc(OP(=O)(O)O)cc1)C(=O)N[C@@H](CO)C(=O)N[C@@H](CC(N)=O)C(=O)N[C@@H](CC(C)C)C(=O)NCC(=O)N[C@@H](CCC(N)=O)C(N)=O)[C@@H](C)O [SH2-pY peptide] |  |  |  |  | 2.6 µM | 
4 | Cc1nc(Nc2ncc(C(=O)Nc3c(C)cccc3Cl)s2)cc(N2CCN(CCO)CC2)n1 [dasatanib] |  |  |  |  |  | blocked
